{"source": "PubChem BioAssay (NCI)", "test_in_all_cases": "NCI anticancer screen, dose series, 48 h", "key": {"[1]": {"system": "MALME-3M melanoma"}, "[2]": {"system": "TK-10 renal"}, "[3]": {"system": "RPMI-8226 leukemia"}, "[4]": {"system": "SK-MEL-5 melanoma"}, "[5]": {"system": "ACHN renal"}, "[6]": {"system": "HCT-116 colon"}, "[7]": {"system": "COLO 205 colon"}, "[8]": {"system": "IGROV1 ovarian"}, "[9]": {"system": "HOP-92 NSCLC"}, "[10]": {"system": "OVCAR-3 ovarian"}}, "note": "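Compound exposure: 48 hours, 5 concentrations, 96-well plates. GI50 = concentration required for 50% inhibition of growth. The concentration for full growth arrest is given as TGI.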"}
{"smiles": "N#CC1C=Cc2ccccc2N1C(=O)Oc1ccccc1", "note": "(stereo not given)", "values": [{"measurement": "TGI", "setting": "[1]", "value": "> 100", "unit": "µM"}, {"measurement": "TGI", "setting": "[2]", "value": "> 100", "unit": "µM"}, {"measurement": "TGI", "setting": "[3]", "value": 61.3, "unit": "µM"}, {"measurement": "TGI", "setting": "[4]", "value": "> 100", "unit": "µM"}, {"measurement": "TGI", "setting": "[5]", "value": "> 100", "unit": "µM"}, {"measurement": "TGI", "setting": "[6]", "value": "> 100", "unit": "µM"}, {"measurement": "TGI", "setting": "[7]", "value": "> 100", "unit": "µM"}, {"measurement": "TGI", "setting": "[8]", "value": "> 100", "unit": "µM"}, {"measurement": "TGI", "setting": "[9]", "value": "> 100", "unit": "µM"}]}
{"smiles": "C=[CH][Sn]([CH]=C)([O]c1cccc2cccnc12)[O]c1cccc2cccnc12", "values": [{"measurement": "GI50", "setting": "[1]", "value": 3.35, "unit": "µM"}, {"measurement": "TGI", "setting": "[1]", "value": 10.3, "unit": "µM"}, {"measurement": "GI50", "setting": "[2]", "value": 9.46, "unit": "µM"}, {"measurement": "TGI", "setting": "[2]", "value": 29.4, "unit": "µM"}, {"measurement": "GI50", "setting": "[3]", "value": 0.877, "unit": "µM"}, {"measurement": "TGI", "setting": "[3]", "value": 4.71, "unit": "µM"}, {"measurement": "GI50", "setting": "[4]", "value": 1.94, "unit": "µM"}, {"measurement": "TGI", "setting": "[4]", "value": 5.44, "unit": "µM"}, {"measurement": "GI50", "setting": "[5]", "value": 3.26, "unit": "µM"}, {"measurement": "TGI", "setting": "[5]", "value": 14.1, "unit": "µM"}, {"measurement": "GI50", "setting": "[6]", "value": 1.12, "unit": "µM"}, {"measurement": "TGI", "setting": "[6]", "value": 2.46, "unit": "µM"}, {"measurement": "GI50", "setting": "[7]", "value": 1.79, "unit": "µM"}, {"measurement": "TGI", "setting": "[7]", "value": 3.19, "unit": "µM"}, {"measurement": "GI50", "setting": "[8]", "value": 3.31, "unit": "µM"}, {"measurement": "TGI", "setting": "[8]", "value": 11, "unit": "µM"}, {"measurement": "GI50", "setting": "[10]", "value": 2.53, "unit": "µM"}, {"measurement": "TGI", "setting": "[10]", "value": 10, "unit": "µM"}, {"measurement": "GI50", "setting": "[9]", "value": 6.52, "unit": "µM"}, {"measurement": "TGI", "setting": "[9]", "value": 19.5, "unit": "µM"}]}
{"smiles": "Nc1ccc2c(c1)c(N)nn2C(=O)Nc1ccc(Cc2ccccc2)cc1", "values": [{"measurement": "GI50", "setting": "[1]", "value": 18, "unit": "µM"}, {"measurement": "TGI", "setting": "[1]", "value": 89.8, "unit": "µM"}, {"measurement": "GI50", "setting": "[2]", "value": 19.4, "unit": "µM"}, {"measurement": "TGI", "setting": "[2]", "value": 46, "unit": "µM"}, {"measurement": "GI50", "setting": "[3]", "value": 5.14, "unit": "µM"}, {"measurement": "TGI", "setting": "[3]", "value": 35, "unit": "µM"}, {"measurement": "GI50", "setting": "[4]", "value": 6.52, "unit": "µM"}, {"measurement": "TGI", "setting": "[4]", "value": 19.8, "unit": "µM"}, {"measurement": "GI50", "setting": "[5]", "value": 3.37, "unit": "µM"}, {"measurement": "TGI", "setting": "[5]", "value": 13.7, "unit": "µM"}, {"measurement": "GI50", "setting": "[6]", "value": 6.79, "unit": "µM"}, {"measurement": "TGI", "setting": "[6]", "value": 20.8, "unit": "µM"}, {"measurement": "GI50", "setting": "[7]", "value": 13.1, "unit": "µM"}, {"measurement": "TGI", "setting": "[7]", "value": 26.5, "unit": "µM"}, {"measurement": "GI50", "setting": "[8]", "value": 16.4, "unit": "µM"}, {"measurement": "TGI", "setting": "[8]", "value": 54.1, "unit": "µM"}, {"measurement": "GI50", "setting": "[10]", "value": 12.1, "unit": "µM"}, {"measurement": "TGI", "setting": "[10]", "value": 28.3, "unit": "µM"}, {"measurement": "GI50", "setting": "[9]", "value": 10.4, "unit": "µM"}, {"measurement": "TGI", "setting": "[9]", "value": 24.4, "unit": "µM"}]}
{"smiles": "CC1COCC(C)N1C1=C(Cl)C(=O)c2ccccc2C1=O", "note": "(stereo not given)", "values": [{"measurement": "GI50", "setting": "[1]", "value": 1.5, "unit": "µM"}, {"measurement": "TGI", "setting": "[1]", "value": 2.97, "unit": "µM"}, {"measurement": "GI50", "setting": "[2]", "value": 13, "unit": "µM"}, {"measurement": "TGI", "setting": "[2]", "value": 26.2, "unit": "µM"}, {"measurement": "GI50", "setting": "[3]", "value": 2.04, "unit": "µM"}, {"measurement": "TGI", "setting": "[3]", "value": 5.68, "unit": "µM"}, {"measurement": "GI50", "setting": "[4]", "value": 6.83, "unit": "µM"}, {"measurement": "TGI", "setting": "[4]", "value": 19.9, "unit": "µM"}, {"measurement": "GI50", "setting": "[5]", "value": 1.66, "unit": "µM"}, {"measurement": "TGI", "setting": "[5]", "value": 3.06, "unit": "µM"}, {"measurement": "GI50", "setting": "[6]", "value": 1.65, "unit": "µM"}, {"measurement": "TGI", "setting": "[6]", "value": 3.01, "unit": "µM"}, {"measurement": "GI50", "setting": "[7]", "value": 13.3, "unit": "µM"}, {"measurement": "TGI", "setting": "[7]", "value": 27, "unit": "µM"}, {"measurement": "GI50", "setting": "[10]", "value": 1.56, "unit": "µM"}, {"measurement": "TGI", "setting": "[10]", "value": 2.92, "unit": "µM"}, {"measurement": "GI50", "setting": "[9]", "value": 0.554, "unit": "µM"}, {"measurement": "TGI", "setting": "[9]", "value": 2.06, "unit": "µM"}]}
{"smiles": "COc1cccc(NC(=O)C(=O)C(C(C)=O)c2nc3ccc(Cl)cc3[nH]c2=O)c1", "note": "(stereo not given)", "values": [{"measurement": "TGI", "setting": "[1]", "value": "> 100", "unit": "µM"}, {"measurement": "TGI", "setting": "[2]", "value": "> 100", "unit": "µM"}, {"measurement": "TGI", "setting": "[3]", "value": "> 100", "unit": "µM"}, {"measurement": "TGI", "setting": "[4]", "value": "> 100", "unit": "µM"}, {"measurement": "TGI", "setting": "[5]", "value": "> 100", "unit": "µM"}, {"measurement": "TGI", "setting": "[6]", "value": "> 100", "unit": "µM"}, {"measurement": "TGI", "setting": "[7]", "value": "> 100", "unit": "µM"}, {"measurement": "TGI", "setting": "[8]", "value": "> 100", "unit": "µM"}, {"measurement": "TGI", "setting": "[10]", "value": "> 100", "unit": "µM"}, {"measurement": "TGI", "setting": "[9]", "value": "> 100", "unit": "µM"}]}
{"smiles": "CC(C)C(=O)Oc1cc2c(=O)oc3c(OC(=O)C(C)C)c(OC(=O)C(C)C)cc4c(=O)oc(c1OC(=O)C(C)C)c2c34", "values": [{"measurement": "TGI", "setting": "[1]", "value": "> 100", "unit": "µM"}, {"measurement": "TGI", "setting": "[2]", "value": "> 100", "unit": "µM"}, {"measurement": "TGI", "setting": "[3]", "value": "> 100", "unit": "µM"}, {"measurement": "TGI", "setting": "[4]", "value": "> 100", "unit": "µM"}, {"measurement": "TGI", "setting": "[5]", "value": "> 100", "unit": "µM"}, {"measurement": "TGI", "setting": "[6]", "value": "> 100", "unit": "µM"}, {"measurement": "TGI", "setting": "[7]", "value": "> 100", "unit": "µM"}, {"measurement": "TGI", "setting": "[8]", "value": "> 100", "unit": "µM"}, {"measurement": "TGI", "setting": "[10]", "value": "> 100", "unit": "µM"}, {"measurement": "TGI", "setting": "[9]", "value": "> 100", "unit": "µM"}]}
{"smiles": "CC(=O)Oc1ccc2c(c1)CC[C@@H]1C2CC[C@]2(C)C(=O)NC(=O)CC12", "note": "(stereo not given in full)", "values": [{"measurement": "TGI", "setting": "[1]", "value": "> 100", "unit": "µM"}, {"measurement": "TGI", "setting": "[2]", "value": "> 100", "unit": "µM"}, {"measurement": "TGI", "setting": "[4]", "value": "> 100", "unit": "µM"}, {"measurement": "TGI", "setting": "[5]", "value": "> 100", "unit": "µM"}, {"measurement": "TGI", "setting": "[6]", "value": "> 100", "unit": "µM"}, {"measurement": "TGI", "setting": "[7]", "value": "> 100", "unit": "µM"}, {"measurement": "TGI", "setting": "[8]", "value": "> 100", "unit": "µM"}, {"measurement": "TGI", "setting": "[10]", "value": "> 100", "unit": "µM"}, {"measurement": "TGI", "setting": "[9]", "value": "> 100", "unit": "µM"}]}
{"smiles": "FC1OC2OC1C(OCc1ccccc1)C(OCc1ccccc1)C2OCc1ccccc1", "note": "(stereo not given)", "values": [{"measurement": "TGI", "setting": "[1]", "value": "> 100", "unit": "µM"}, {"measurement": "TGI", "setting": "[2]", "value": "> 100", "unit": "µM"}, {"measurement": "TGI", "setting": "[3]", "value": 61.2, "unit": "µM"}, {"measurement": "TGI", "setting": "[4]", "value": "> 100", "unit": "µM"}, {"measurement": "TGI", "setting": "[6]", "value": 63.2, "unit": "µM"}, {"measurement": "TGI", "setting": "[7]", "value": "> 100", "unit": "µM"}, {"measurement": "TGI", "setting": "[8]", "value": "> 100", "unit": "µM"}, {"measurement": "TGI", "setting": "[10]", "value": "> 100", "unit": "µM"}, {"measurement": "TGI", "setting": "[9]", "value": 64, "unit": "µM"}]}
